Values of other authors in patent US10751297B2, “Composition and method for treating skin conditions” (priority 2017, dated 2020).

How the values were obtained:
herpes simplex virus = settings: in vitro
HIV-1 = settings: in vitro
[1] = tested on: respiratory syncytial virus; settings: in vitro
Friend virus = settings: in vivo
[2] = tested on: early viral protein synthesis
[3] = tested on: acyclovir-resistant HSV strains

Compound: CCCCCCCCCCCCCCCCCCCCCCO [docosanol]
- antiviral activity against herpes simplex virus (herpes simplex virus): potent antiviral activity
- antiviral activity against HIV-1 (HIV-1): potent antiviral activity
- antiviral activity against respiratory syncytial virus [1]: potent antiviral activity
- antiviral activity against Friend virus (Friend virus): potent antiviral activity
- inhibition of early viral protein synthesis [2]: more than 80%
- concentration up to which not cytotoxic (cells): up to 300 mM
- effectiveness in acyclovir-resistant HSV strains [3]: effective
